This is an account of results in PubChem BioAssay (NCI).

What all share (assay): growth of human tumour cells (NCI), 48 h
The subject of assay [1] is A498 renal.
The subject of assay [2] is NCI-H460 lung.
The test system of assay [3] is HCT-15 colon.
For assay [4], the system named is HT29 colon.
For assay [5], the system named is K-562 leukemia.
The test system of assay [6] is OVCAR-3 ovarian.
In assay [7] the test system is HCT-116 colon.
The test system of assay [8] is RPMI-8226 leukemia.
The subject of assay [9] is OVCAR-5 ovarian.
Assay [10] has as its system RXF 393 renal.

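96-well plates; 48 h exposure; 5 concentrations. Endpoints by linear interpolation between flanking doses. Not reached: highest tested concentration assigned. The concentration for full growth arrest is given as TGI.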 Bounds are passed on as bounds.

As to `Cc1ccccc1/C=C/C(=O)c1ccccc1`, the TGI in [1] was 30.2 µM; in [2], 38.7 µM; in assay [3], above 10 µM; in assay [4], 47.7 µM; in assay [5] it was 49.7 µM; in assay [6], 31 µM. Besides, the TGI worked out at 31 µM in assay [7], 71.4 µM in assay [8] and 30.9 µM in assay [9].

Turning to `Cc1c2ccncc2c(C)c2c1[nH]c1ccc(O)c(OCC(F)(F)F)c12`, the TGI is 37.5 µM in assay [1]; 10.5 µM in assay [2]; above 7.5 µM in assay [4]; 33.9 µM in assay [5]; 19 µM in assay [6]; 9.11 µM in assay [7]. Further, the TGI worked out at 5.95 µM in assay [8] and 25.8 µM in assay [9].

Turning to `COc1ccc2c(NCCCCCCNc3c4ccccc4nc4cc(OC)ccc34)c3ccccc3nc2c1`, the TGI in assay [10] is 0.483 µM; in assay [2], 1.1 µM; in assay [3], 9.36 µM; in assay [4] it was 0.486 µM; in assay [5], 0.304 µM; in [6], 1.76 µM. The TGI in assay [7] came out at 0.333 µM; in assay [8], 0.717 µM; in assay [9], 1.89 µM.

Turning to `COc1c(O)c(OC)c2oc(-c3ccc(O)cc3)c(OC)c(=O)c2c1O`, the TGI is above 100 µM in assay [1]; above 100 µM in [2]; above 100 µM in assay [3]; above 100 µM in [4]; above 100 µM in assay [5]; 74.9 µM in [6]. For the same compound, the TGI in assay [7], in [8] and in assay [9] was above 100 µM each time.

On to `CCOC(=O)C1(Cc2ccc3ccccc3c2)CCCCC(=O)N1` (stereo not drawn), for which the TGI in [10] is above 100 µM; in assay [2], above 100 µM; in assay [3] it was above 100 µM; in assay [4], above 100 µM; in assay [5], above 100 µM; in [6], 92.5 µM. Moreover, the TGI in [8] worked out at 58.2 µM.

In the case of `C=C1C2Oc3ccccc3C1N(c1ccccc1)O2` (stereo not drawn), the TGI was above 100 µM in assay [10]; 55.5 µM in [2]; above 100 µM in assay [3]; 67.5 µM in [4]; above 100 µM in assay [5]; above 100 µM in [6]. The values for the TGI in assay [7], in [8] and in [9] were 54.2 µM, above 100 µM and above 100 µM, respectively.

In the case of `Cc1cccc(C)c1N1C(=O)C(=O)C(c2nc3ccccc3s2)C(=Nc2cccc3c(=O)[nH][nH]c(=O)c23)C1=O` (stereo not drawn), the TGI in assay [1], in assay [2], in assay [3], in [4], in assay [5] and in assay [6] was above 100 µM in each case. In addition, the TGI in assay [7], in assay [8] and in assay [9] was above 100 µM throughout.

As for `COc1ccccc1NC(=O)/C(=C/c1ccccc1)C(C)=O`, the TGI in assay [10] is 53.8 µM; in assay [2], above 100 µM; in assay [3], above 100 µM; in assay [4] it was above 100 µM; in assay [5], above 100 µM; in assay [6], above 100 µM. Further, the TGI in assay [7], in [8] and in assay [9] was above 100 µM each time.

Regarding `O=C1/C(=C/c2cccc([N+](=O)[O-])c2)Sc2scc(-c3ccc([N+](=O)[O-])cc3)[n+]21`, the TGI is 24.6 µM in assay [2]; 33.6 µM in assay [3]; 38.8 µM in assay [4]; above 100 µM in [6]; 34.9 µM in assay [7]; 51.2 µM in [9].

For the compound `O=C1CNS(=O)(=O)N1`, the TGI in assay [1], in assay [4], in assay [5], in assay [6], in assay [7] and in assay [8] was above 100 µM throughout.

Consider `Cc1c(C(=O)/C=C/c2ccccc2[N+](=O)[O-])[n+](=O)c2ccccc2n1[O-]`, for which the TGI in assay [1] turned out to be 26 µM; in assay [2], 22.5 µM; in assay [3], 12.6 µM; in assay [4] it was 23.2 µM; in [5], 30.6 µM; in assay [6], 13.3 µM. For the same compound, the figures for the TGI in assay [7], in assay [8] and in assay [9] were 16.5 µM, 14.7 µM and 26.9 µM, respectively.

Regarding `N#CC(C#N)=c1c2nsnc2c(=C(C#N)C#N)c2nsnc12`, the TGI in [10] is 2.61 µM; in assay [2], 3.86 µM; in [4] it was 3.2 µM; in [6], 8.34 µM; in assay [7], 3.71 µM; in assay [9], 3.3 µM.

As to `CCOC(=O)c1c(SCCN2CCOCC2)n(-c2ccccc2)c(=S)n(-c2ccccc2)c1=O`, the TGI in [10] is 33.9 µM; in assay [2] it was above 100 µM; in assay [3], 45.7 µM; in [4], 34.9 µM; in [5] it was 38 µM; in assay [6], above 100 µM. Besides, the figures for the TGI in assay [8] and in [9] were 94.1 µM and above 100 µM, respectively.

With `O=C1C2=C(CCC2)Nc2cccc3ncn1c23`, the TGI in [10], in [2], in assay [3], in assay [5], in assay [7] and in [8] was above 100 µM in each case. This compound also came in with a TGI in [9] above 100 µM.

`Cc1ccc(NC(=O)/C(Cc2nc3ccc([N+](=O)[O-])cc3[nH]c2=O)=N\NC(=O)C[n+]2ccccc2)c(C)c1`: the TGI in [10] is 73.1 µM; in assay [2], above 100 µM; in [3] it was above 100 µM; in assay [4], above 100 µM; in [6], 59.3 µM; in assay [7] it was above 100 µM. In assay [9], this compound had a TGI above 100 µM.
